The values below come from PMC4502315, “High Potency of a Novel Resveratrol Derivative, 3,3′,4,4′-Tetrahydroxy-trans-stilbene, against Ovarian Cancer Is Associated with an Oxidative Stress-Mediated Imbalance between DNA Damage Accumulation and Repair” (Oxidative Medicine and Cellular Longevity, 2015).

Data set [1] has as its system A2780. Kind of data set: MTT viability assay, A2780. It is filed as cell-based. To be noted: Homo sapiens, 24 h. The procedure: (§1) Cell viability was assessed with the MTT test and with lactate dehydrogenase (LDH) release assay. As per the MTT method, normal and cancer cells were seeded into 96-well plates at high density and allowed to attach overnight. Then they were incubated in a medium containing 1.25 mg/mL of the MTT salt [3-(4,5-dimethylthiazol-2-yl)-2,5-diphenyltetrazolium bromide] for 24 h at 37°C. The generated formazan was solubilized with 20% sodium dodecyl sulphate and 50% N,N-dimethylformamide. Absorbance of the converted dye was recorded at 595 nm with a reference wavelength of 690 nm.
(§2) In order to examine the effect of 3,3′,4,4′-THS on the viability of ovarian cancer cells and to compare its activity with RVT, subconfluent cultures of A2780, OVCAR-3, and SKOV-3 cells were subjected to a wide range of stilbene concentrations (0–500 μM) for 24 h; then MTT and LDH release assays were performed.
(Formazan colour is commonly taken as a measure of viable cells.)

Data set [2] relates to SKOV-3. In words: MTT viability assay, SKOV-3. To be noted: Homo sapiens; for IC50: SK-OV-3, 24 h. The data set is classed as cell-based. As for the experimental part:
as §1, §2

For data set [3], the system named is HOSE cells. In words: MTT viability assay, HOSE cells. It is filed as cell-based, human. To be noted: 24 h; for IC50: Homo sapiens, CalcuSyn; for concentration up to which viability was unchanged: cytotoxicity tests (MTT and LDH release). As for the experimental part:
as §1, §2

The test system of data set [4] is A2780 cells. In words: ROS production (H2DCFDA), A2780. It is filed as cell-based, human. To be noted: 24 h, 10, 50, 100 μM tested. The procedure:
ROS production was assessed in cells probed with a fluorescent dye, 2′,7′-dichlorodihydrofluorescein diacetate (H2DCFDA; 5 μM) (Molecular Probes, Eugene, USA) for 45 min at 37°C. Fluorescence intensity in cell lysates was monitored in a Victor2 spectrofluorometer with excitation at 485 nm and emission at 535 nm.

Data set [5] has as its system superoxide dismutase (SOD). In words: SOD activity in cell lysates, SKOV-3. The data set is classed as cell-based, human. To be noted: 24 h, 10, 50, 100 μM tested. The procedure:
(§3) Total activity of superoxide dismutase (SOD) was measured in cell lysates with a commercially available kit (R&D Systems Europe, Abingdon, UK), while the activity of catalase (CAT) was estimated by using the OxiSelect Catalase Activity Assay Kit (Cell Biolabs Inc., San Diego, CA, USA). Both assays were performed according to the manufacturer's instructions.

In data set [6] the test system is catalase (CAT). In words: CAT activity, A2780. The data set is classed as cell-based, human. Conditions: 24 h, 10, 50, 100 μM tested. As for the experimental part: as §3
The test system of data set [7] is catalase (CAT). In words: CAT activity, OVCAR-3. It is filed as cell-based, human. To be noted: 24 h, 10, 50, 100 μM tested. The procedure:
as §3

Data set [8] deals with OVCAR-3 cells. In words: Oxidative DNA damage (8-OH-dG immunoassay), OVCAR-3. The data set is classed as cell-based, human. To be noted: 24 h, 10, 50, 100 μM tested. The procedure:
(§4) Oxidative DNA damage was assessed by measuring the 8-OH-dG concentration with a competitive immunoassay (Cell Biolabs Inc.), as per manufacturer's instructions. The efficiency of 8-OH-dG repair was estimated after cell recovery for 24 h in standard growth medium. In order to examine the activity of DNA glycosylase I, reverse transcription PCR was performed. RNA extraction was carried out using the RNA Bee (Tel-Test, Friendswood, Texas, USA) and purified according to the manufacturer's protocol. One microgram of RNA was reverse transcribed into cDNA with random hexamer primers, and cDNA was subjected to PCR. The profile of the replication cycles was denaturation at 94°C for 50 s, annealing at 58°C for 50 s, and polymerization at 72°C for 1 min. In each reaction, the expression of glyceraldehyde-3-phosphate dehydrogenase (GAPDH) served as the internal control. The primers used for PCR were as follows: hOGG1 forward, 5′-[…]-3′; hOGG1 reverse, 5′-TAGCCCGCCCTGTTCTTC-3′ designed to amplify a 551-bp region; GAPDH forward, 5′-CCATGGAGAAGGCTGGGG-3′; and GAPDH reverse 5′-[…]-3′ designed to amplify a 194-bp region (total number of cycles: 28). The PCR products were separated on 3% agarose gels stained with ethidium bromide and then visualized.

The subject of data set [9] is HOSE cells. Kind of data set: Oxidative DNA damage (8-OH-dG immunoassay), HOSE cells. To be noted: 24 h, percentage of control cells. The data set is classed as cell-based, human. As for the experimental part: as §4
In data set [10] the test system is HPMCs. Kind of data set: Oxidative DNA damage (8-OH-dG immunoassay), HPMCs. The data set is classed as cell-based, human. Conditions: 24 h, percentage of control cells. As for the experimental part: as §4
The subject of data set [11] is OVCAR-3 cells. In words: Cell proliferation (CFDA SE), OVCAR-3. The data set is classed as cell-based, human. To be noted: low-density cultures, 24 h, 10, 50, 100 μM tested. The procedure:
Cell proliferative potential was determined using Cell Proliferation Kit I (PromoKine, Heidelberg, Germany) according to the manufacturer's instructions. In brief, cells were probed for 15 min with 5-(and 6)-carboxyfluorescein diacetate, a succinimidyl ester (CFDA SE; 2 μM) which diffuses into cells, covalently binds to proteins, and becomes fluorescent upon its hydrolysis by intracellular esterases. The fluorescence emitted by the cells (the dye is inherited by the daughter cells through successive divisions) was recorded using a Victor2 spectrofluorometer (Perkin-Elmer, Turku, Finland) with excitation at 435 nm and emission at 535 nm.

The test system of data set [12] is SKOV-3 cells. In words: SA-β-Gal activity (senescence), SKOV-3. The data set is classed as cell-based, human. To be noted: 24 h, 10, 50, 100 μM tested. The procedure: The activity of SA-β-Gal in the cell extracts was quantified by measuring the rate of conversion of 4-methylumbelliferyl-β-D-galactopyranoside to 4-methylumbelliferone, as described in [19]. In order to visualize expression of the enzyme in the cancer cell cytoplasm, cytochemical staining for SA-β-Gal was performed according to Dimri et al..

The test system of data set [13] is caspase-9. Kind of data set: Caspase-9 activity in ovarian cancer cell lysates. It is filed as cell-based, human. To be noted: ovarian cancer cells (A2780, OVCAR-3, SKOV-3); 24 h. As for the experimental part:
Identification of apoptosis was based on the presence of DNA condensation in cells stained with a fluorescent dye, Hoechst 33258 (Molecular Probes, Eugene, OR). Cells were grown on Lab-Tek Chamber Slides (Nunc, Roskilde, Denmark), fixed with 4% formaldehyde for 10 min and washed twice with PBS. Then the cells were incubated with Hoechst 33258 (0.1 μg/mL) for 5 min in the dark. After washing with PBS, stained nuclei were observed and counted under a Zeiss Axio Observer D1 fluorescence microscope (Carl Zeiss, Jena, Germany). The activity of caspases 3, 8, and 9 was quantified in the cell lysates using specific colorimetric kits (Abcam, Cambridge, UK) according to the manufacturer's instructions.

[14] abbreviates: CalcuSyn, read-out: IC50, MTT assay.
Setting [15] is: read-out: IC50 (range over MTT and LDH release assays).

Structures are written as SMILES. Where two headings read alike, the source gives them in different places.

What is called viability is a per cent measure of how many cells are alive, often set against a control. A lower viability goes with a greater loss of cells. The term IC50 denotes the concentration needed to halve the response being measured. `Oc1ccc(/C=C/c2ccc(O)c(O)c2)cc1O` [3,3′,4,4′-THS, 3,3′,4,4′-tetrahydroxy-trans-stilbene]: the viability at 10 µM was found to be 20 ± 3% in data set [1] (10 μM, percentage of control cells) and 40 ± 2% in data set [2] (SK-OV-3, 10 μM, 24 h, percentage of control cells). Also, the viability at 50 µM was 14 ± 3% in data set [1] (50 μM, percentage of control cells) and 39 ± 4% in data set [2] (SK-OV-3, 50 μM, 24 h, percentage of control cells). Besides, the viability at 100 µM in [1] (100 μM, percentage of control cells) was determined as 13 ± 3%; in [2] (SK-OV-3, 100 μM, 24 h, percentage of control cells), 35 ± 2%. Also, the 50% inhibitory concentration (IC50) in [1] (setting [14]) was 4 µM; in [1] (setting [15]) it was 4 to 6 µM; in data set [2] (setting [14]), 8 µM; in [2] (setting [15]), 8 to 10 µM; in [3] it was 502 µM. In addition, the “concentration up to which viability was unchanged” value in [3] was not above 400 µM. Also, the “generation of ROS, effect in words” value in [4] is given as “markedly upregulated the generation of ROS”. Further, the “SOD activity, effect in words” value in [5] was “downregulated it at 50 and 100 μM”. Also, the “CAT activity, effect in words” value in [6] was “did not change CAT activity”; in data set [7], “upregulated it in the OVCAR-3 cells at 10 μM, reduced it at 50 and 100 μM”. Moreover, the “concentration of 8-OH-dG (oxidative DNA damage), effect in words” value in data set [8] was “increasing the concentration of 8-OH-dG in the OVCAR-3 and SKOV-3 cells starting from a dose of 10 μM”. Moreover, the 8-OH-dG in data set [9] (10 μM) is 103 ± 3%; in data set [9] (50 μM), 76 ± 3^∗# %; in data set [9] (100 μM), 71 ± 2^∗# %; in data set [10] (10 μM), 91 ± 2^∗# %; in data set [10] (50 μM), 88 ± 3^∗# %; in data set [10] (100 μM), 76 ± 3^∗# %. Moreover, the “proliferation, effect in words” value in [11] is recorded as “evident at as low a concentration as 10 μM”. For the same compound, in data set [12], the “SA-β-Gal activity (senescence), effect in words” value is “significantly greater than those of RVT at each concentration”. Also, the “caspase-9 activity, effect in words” value in data set [13] is “increased the activity of the same caspases as RVT did”.
In the case of `Oc1ccc(/C=C/c2cc(O)cc(O)c2)cc1` [RVT, 3,4′,5-trihydroxy-trans-stilbene, reference compound], the IC50 in [1] (setting [14]) is 48 µM; in data set [2] (setting [14]), 380 µM; in [3] it was 485 µM. Also, in data set [3], the “concentration up to which viability was unchanged” value is not above 400 µM. In [4], the “generation of ROS, effect in words” value was “(at 50 and 100 μM) inhibited the production of ROS”. Also, in data set [5], the “SOD activity, effect in words” value is “failed to affect SOD activity”. The “CAT activity, effect in words” value is “stimulated the enzyme at 10 μM in the OVCAR-3 cells, at 50 μM in the A2780, OVCAR-3, and SKOV-3 cells, and at 100 μM in the OVCAR-3 and SKOV-3 cells” in data set [6]; “stimulated the enzyme at 10 μM in the OVCAR-3 cells, at 50 μM in the A2780, OVCAR-3, and SKOV-3 cells, and at 100 μM in the OVCAR-3 and SKOV-3 cells” in [7]. The “concentration of 8-OH-dG (oxidative DNA damage), effect in words” value in data set [8] is “evident only at 100 μM”. The 8-OH-dG in data set [9] (10 μM) is recorded as 103 ± 5%; in data set [9] (50 μM), 102 ± 5%; in data set [9] (100 μM) it was 82 ± 4^∗ %; in data set [10] (10 μM), 103 ± 3%; in data set [10] (50 μM) it was 103 ± 2%; in data set [10] (100 μM), 102 ± 5%. Besides, the “proliferation, effect in words” value in [11] is on record as “effectively reduced the expandability”. Besides, the “SA-β-Gal activity (senescence), effect in words” value in data set [12] is listed as “cellular senescence was elicited”. In addition, in data set [13], the “caspase-9 activity, effect in words” value was “activated caspases 9 and 3, and this activity was evident at 50 and 100 μM”.
